Consider 35 molecules from article PMC9968098, “Towards Arginase Inhibition: Hybrid SAR Protocol for Property Mapping of Chlorinated N-arylcinnamamides” (International Journal of Molecular Sciences, 2023).

Where two headings read alike, the source gives them in different places.

The subject of series [1] is human monocytic leukemia cell line THP-1. Also on record: method as in PMID 35328580. The note with it: cell viability, THP-1 cells, n = 3; cited from earlier work.
Details of series [2]: method as in PMID 35328580. The settings on record: experimentally determined lipophilicity, RP-HPLC; cited from earlier work.
For series [3], the system named is P. falciparum 3D7/MRA-102. Nature of the series: In vitro antiplasmodial activity (parasite growth, 48 h). The series is classed as cell-based. The settings on record: Plasmodium falciparum, read-out: Pf IC50 ± SD. The protocol:
The following reagent was obtained through BEI Resources, NIAID, NIH: Plasmodium falciparum, strain 3D7, MRA-102, contributed by Daniel J. Carucci. Based on a modified procedure by Trager and Jensen, asexual erythrocytic stages of Pf were continuously maintained through in vitro culture. The chloroquine-sensitive strain is cultured thanks to human red blood cells (A+) and a culture medium mainly composed of RPMI 1640 (Gibco, Fisher Scientific, Loughborough, UK) containing NaHCO3 (32 mM), HEPES (25 mM), and L-glutamine. The medium was supplemented with 1.76 g/L of glucose (Sigma-Aldrich, […], Belgium), […] of hypoxanthine (Sigma-Aldrich), 100 mg/L of gentamycin (Gibco, Fisher Scientific) and 10% human pooled serum (A+), as previously described. Solutions of pure products were prepared in DMSO at 10 mg/mL. As DMSO is recognized as toxic for parasites, the highest concentration of solvent to which they were exposed was 1%. Thus, primary solutions were diluted in a culture medium to reach 100 μg/mL in the first row of a 96-well plate. Therefore, each test sample was applied in a series of eight 2-fold dilutions and tested in triplicate. The assay was performed with 2% parasitaemia and 1% haematocrit. After 48 h of incubation, plates were frozen at -20 °C for 12 h and parasite growth was quantified according to the methods described by Makler et al.. Chloroquine (Sigma-Aldrich) was used as positive standards in all experiments, with initial concentrations at 100 ng/mL. Infected and uninfected red blood cells (RBC) were used as positive (100% growth) and negative controls (0% growth). Consequently, comparison between infected erythrocytes and samples allowed us to estimate the growth inhibition. IC50 values were calculated from linear regression.

[4] abbreviates: chloroquine-sensitive strain 3D7/MRA-102, 48 h incubation, n = 3.

On to `O=C(/C=C/c1ccc(Cl)cc1)Nc1ccccc1` [1a], for which the 50% inhibitory concentration (IC50) in series [1] is more than 10 µM; in series [3] (setting [4]), more than 30 µM. The logk in series [2] is 0.4490.

Regarding `O=C(/C=C/c1ccc(Cl)cc1)Nc1ccccc1F` [1b], the IC50 was more than 10 µM in series [1] and more than 30 µM in series [3] (setting [4]). The logk in series [2] was 0.6459.

As for `O=C(/C=C/c1ccc(Cl)cc1)Nc1cccc(F)c1` [1c], the IC50 in series [1] was more than 10 µM; in series [3] (setting [4]), 6.9 ± 2.1 µM. The logk in series [2] is reported as 0.7859.

Consider `O=C(/C=C/c1ccc(Cl)cc1)Nc1ccc(F)cc1` [1d], for which the concentration for half-maximal inhibition (IC50) in series [1] is more than 10 µM; in series [3] (setting [4]), more than 30 µM. The logk in series [2] is recorded as 0.7808.

As to `O=C(/C=C/c1ccc(Cl)cc1)Nc1ccccc1Cl` [1e], the 50% inhibitory concentration (IC50) in series [1] was more than 10 µM; in series [3] (setting [4]), more than 30 µM. The logk in series [2] is on record as 0.5241.

For `O=C(/C=C/c1ccc(Cl)cc1)Nc1cccc(Cl)c1` [1f], the IC50 was more than 10 µM in series [1] and 12.7 ± 2.1 µM in series [3] (setting [4]). Also, the logk in series [2] is listed as 0.6192.

As to `O=C(/C=C/c1ccc(Cl)cc1)Nc1ccc(Cl)cc1` [1g], the results for the IC50 in series [1] and in series [3] (setting [4]) were more than 10 µM and 29.2 ± 2.4 µM, respectively. Further, in series [2], the logk is recorded as 0.5598.

Turning to `O=C(/C=C/c1ccc(Cl)cc1)Nc1ccccc1C(F)(F)F` [1h], the half-maximal inhibitory concentration (IC50) in series [1] is more than 10 µM; in series [3] (setting [4]), more than 30 µM. In addition, in series [2], the logk was 0.5506.

Turning to `O=C(/C=C/c1ccc(Cl)cc1)Nc1cccc(C(F)(F)F)c1` [1i], the values for the half-maximal inhibitory concentration (IC50) in series [1] and in series [3] (setting [4]) were more than 10 µM and 14.8 ± 3.1 µM, respectively. The logk in series [2] is 0.8612.

In the case of `O=C(/C=C/c1ccc(Cl)cc1)Nc1ccc(C(F)(F)F)cc1` [1j], the values for the IC50 in series [1] and in series [3] (setting [4]) were more than 10 µM and more than 30 µM, respectively. The logk in series [2] is 0.9078.

As to `O=C(/C=C/c1ccc(Cl)cc1)Nc1ccc(F)cc1F` [1k], the IC50 in series [1] is more than 10 µM; in series [3] (setting [4]) it was 11 ± 2.1 µM. Besides, the logk in series [2] is given as 0.5746.

Turning to `O=C(/C=C/c1ccc(Cl)cc1)Nc1cc(F)cc(F)c1` [1l], the 50% inhibitory concentration (IC50) in series [1] was more than 10 µM; in series [3] (setting [4]) it was 5.2 ± 0.9 µM. For the same molecule, the logk in series [2] is 0.8054.

Regarding `O=C(/C=C/c1ccc(Cl)cc1)Nc1ccc(Cl)cc1Cl` [1m], the IC50 in series [1] is more than 10 µM; in series [3] (setting [4]), 4.6 ± 1.8 µM. For the same molecule, the logk in series [2] is 0.9665.

On to `O=C(/C=C/c1ccc(Cl)cc1)Nc1cc(Cl)ccc1Cl` [1n], for which the IC50 in series [1] is more than 10 µM; in series [3] (setting [4]) it was more than 30 µM. Also, the logk in series [2] is 0.9507.

`O=C(/C=C/c1ccc(Cl)cc1)Nc1cc(Cl)cc(Cl)c1` [1o]: the half-maximal inhibitory concentration (IC50) was more than 10 µM in series [1] and 4.4 ± 1.8 µM in series [3] (setting [4]). The logk in series [2] is recorded as 1.1899.

As for `O=C(/C=C/c1ccc(Cl)cc1)Nc1cc(C(F)(F)F)cc(C(F)(F)F)c1` [1p, (2E)-N-[3,5-bis(trifluoromethyl)phenyl]-3-(4-chlorophenyl)prop-2-enamide], the IC50 in series [1] is more than 10 µM; in series [3] (setting [4]), 2.5 ± 0.9 µM. Further, the logk in series [2] is recorded as 1.3064.

As for `O=C(/C=C/c1ccc(Cl)cc1)Nc1ccc(OC(F)(F)F)cc1Br` [1q], the IC50 in series [1] was more than 10 µM; in series [3] (setting [4]), 24.8 ± 2.5 µM. The logk in series [2] is 1.0278.

For the molecule `O=C(/C=C/c1ccc(Cl)c(Cl)c1)Nc1ccccc1` [2a], the IC50 in series [1] was more than 10 µM; in series [3] (setting [4]), 21.4 ± 2.6 µM. Also, in series [2], the logk is listed as 0.6199.

`O=C(/C=C/c1ccc(Cl)c(Cl)c1)Nc1ccccc1F` [2b]: the IC50 in series [1] was more than 10 µM; in series [3] (setting [4]) it was more than 30 µM. Also, the logk in series [2] is recorded as 0.7764.

`O=C(/C=C/c1ccc(Cl)c(Cl)c1)Nc1cccc(F)c1` [2c]: the concentration for half-maximal inhibition (IC50) was more than 10 µM in series [1] and 3.4 ± 1 µM in series [3] (setting [4]). The logk in series [2] is 0.9071.

As to `O=C(/C=C/c1ccc(Cl)c(Cl)c1)Nc1ccc(F)cc1` [2d], the IC50 in series [1] was more than 10 µM; in series [3] (setting [4]), 14.1 ± 3.1 µM. Besides, the logk in series [2] is on record as 0.9009.

With `O=C(/C=C/c1ccc(Cl)c(Cl)c1)Nc1ccccc1Cl` [2e], the concentration for half-maximal inhibition (IC50) in series [1] was more than 10 µM; in series [3] (setting [4]) it was more than 30 µM. Besides, the logk in series [2] is reported as 0.6488.

Consider `O=C(/C=C/c1ccc(Cl)c(Cl)c1)Nc1cccc(Cl)c1` [2f], for which the results for the concentration for half-maximal inhibition (IC50) in series [1] and in series [3] (setting [4]) were more than 10 µM and 10.5 ± 2 µM, respectively. For the same molecule, in series [2], the logk was 0.7404.

Consider `O=C(/C=C/c1ccc(Cl)c(Cl)c1)Nc1ccc(Cl)cc1` [2g], for which the 50% inhibitory concentration (IC50) is more than 10 µM in series [1] and 7.9 ± 1.7 µM in series [3] (setting [4]). For the same molecule, the logk in series [2] is 0.6786.

Take `O=C(/C=C/c1ccc(Cl)c(Cl)c1)Nc1ccccc1C(F)(F)F` [2h]: the values for the concentration for half-maximal inhibition (IC50) in series [1] and in series [3] (setting [4]) were more than 10 µM and more than 30 µM, respectively. For the same molecule, the logk in series [2] was 0.6836.

With `O=C(/C=C/c1ccc(Cl)c(Cl)c1)Nc1cccc(C(F)(F)F)c1` [2i], the IC50 in series [1] was more than 10 µM; in series [3] (setting [4]), 14.2 ± 2.3 µM. Further, in series [2], the logk is given as 0.9873.

As to `O=C(/C=C/c1ccc(Cl)c(Cl)c1)Nc1ccc(C(F)(F)F)cc1` [2j], the IC50 is more than 10 µM in series [1] and 16 ± 2.5 µM in series [3] (setting [4]). The logk in series [2] is on record as 1.0364.

For `O=C(/C=C/c1ccc(Cl)c(Cl)c1)Nc1ccc(F)cc1F` [2k, (2E)-3-(3,4-dichlorophenyl)-N-(2,4-difluoro-phenyl)prop-2-enamide], the IC50 was more than 10 µM in series [1] and 1.9 ± 0.06 µM in series [3] (setting [4]). Besides, in series [2], the logk was 0.6989.

For `O=C(/C=C/c1ccc(Cl)c(Cl)c1)Nc1cc(F)cc(F)c1` [2l, (2E)-3-(3,4-dichlorophenyl)-N-(3,5-difluoro-phenyl)prop-2-enamide], the concentration for half-maximal inhibition (IC50) in series [1] was more than 10 µM; in series [3] (setting [4]), 1.8 ± 0.08 µM. In addition, in series [2], the logk is reported as 0.9298.

Regarding `O=C(/C=C/c1ccc(Cl)c(Cl)c1)Nc1ccc(Cl)cc1Cl` [2m], the half-maximal inhibitory concentration (IC50) is more than 10 µM in series [1] and 3.4 ± 0.9 µM in series [3] (setting [4]). The logk in series [2] is given as 1.0932.

Regarding `O=C(/C=C/c1ccc(Cl)c(Cl)c1)Nc1cc(Cl)ccc1Cl` [2n], the IC50 in series [1] was more than 10 µM; in series [3] (setting [4]), more than 30 µM. The logk in series [2] is reported as 1.0840.

For the molecule `O=C(/C=C/c1ccc(Cl)c(Cl)c1)Nc1cc(Cl)cc(Cl)c1` [2o], the values for the concentration for half-maximal inhibition (IC50) in series [1] and in series [3] (setting [4]) were more than 10 µM and 3.8 ± 1.1 µM, respectively. Also, in series [2], the logk is reported as 1.3043.

Consider `O=C(/C=C/c1ccc(Cl)c(Cl)c1)Nc1cc(C(F)(F)F)cc(C(F)(F)F)c1` [2p, (2E)-N-[3,5-bis(trifluoromethyl)phenyl]-3-(3,4-dichloro-phenyl)prop-2-enamide], for which the IC50 in series [1] is more than 10 µM; in series [3] (setting [4]) it was 1.6 ± 0.07 µM. In series [2], the logk was 1.4731.

On to `O=C(/C=C/c1ccc(Cl)c(Cl)c1)Nc1ccc(OC(F)(F)F)cc1Br` [2q], for which the results for the half-maximal inhibitory concentration (IC50) in series [1] and in series [3] (setting [4]) were more than 10 µM and 23 ± 2.7 µM, respectively. Also, the logk in series [2] was 1.2065.

For `CCN(CC)CCCC(C)Nc1ccnc2cc(Cl)ccc12` (stereo not shown) [CQ, chloroquine, reference compound], the concentration for half-maximal inhibition (IC50) in series [3] (3D7, 48 h) worked out at 0.5 ± 0.2 µM.
